Reference: US6864086B2, “Nitric oxide-scavenging system for culturing oocytes, embryos, or other cells” (Board of Supervisors of Louisiana State University and …, priority 1998, dated 2005)
“And” between values parts separate entries of the source, which are not always exact repeats. Equal values may be shown once.

Tested on: bovine embryos
Test: Example 9: L-NAME (1 or 1000 nM) added to mBECM containing serum and Hb, pre-hatching development
Assay type: cell-based
Set-up: key to Least square mean of embryos developed to 16-cell / Least square mean of embryos developed to Blastocyst / Least square mean of embryos developed to 2-cell / Least square mean of embryos developed to 8-cell / Least square mean of embryos developed to Morula: fraction developed; each embryo scored 1 = developed, 0 = not developed
Conditions: Hb 1 μg/ml, no L-NAME
Experimental: The basic medium used for maturation of oocytes was tissue culture medium (TCM)-199 with Earle's salts, buffered with 25 mM HEPES (Gibco BRL, Grand Island, N.Y.) and supplemented with 10% (v/v) heat-inactivated fetal bovine serum (FBS; Hyclone Laboratories, Logan, Utah), 1 μg/ml estradiol-17β (NOBL Laboratories, Sioux Center, Iowa), 3 μg/ml bovine FSH (NOBL Laboratories), 6 μg/ml bovine LH (NOBL Laboratories), and 25 μg/ml gentamycin (Sigma Chemical Co., St. Louis, Mo.). The basic medium used for treatment of spermatozoa and fertilization of oocytes was a modified Tyrode's medium (J. Parrish et al., Capacitation of bovine sperm by heparin. Biol. Reprod. 38:1171-1180 (1988)), supplemented with 0.25 mM sodium pyruvate (Gibco BRL), 6 mg/ml fatty acid (FA)-free BSA (No. A-6003, Sigma), 15 μg/ml calcium heparin from porcine intestinal mucosa (183 USP/mg; H-8398, Sigma), and 25 μg/ml gentamycin. Modified bovine embryo culture medium (mBECM) containing 10 μM β-mercaptoethanol was used for culture of embryos, as described in J. Lim et al., “Roles of growth factors in the development of bovine embryos fertilized in vitro and cultured singly in a defined medium,” Reprod. Fertil. Dev., 8:1199-1205 (1996). mBECM supplemented with 10% (v/v) FBS was used for co-culturing inseminated oocytes with CGC. Osmolarity of the medium was maintained within the range of 265-290 mOsm.
All cumulus-oocyte complexes (COC) were collected in Madison, Wis. (BOMED, Inc.) and were shipped in 2 ml of maturation medium in a battery powered incubator via overnight express mail service. Oocytes matured during transit and arrived within 24 h after exposure to maturation medium, pre-equilibrated at 39° C. in 5% CO2 in air. At 22 to 24 h after exposure to the medium, the COCs were inseminated in vitro as described in J. Lim et al., “Intracytoplasmic glutathione concentration and the role of β-mercaptoethanol in preimplantation development of bovine embryos,” Theriogenology, 46:429-439 (1996). At 18 h post-insemination, COCs were cultured in groups (28-40 embryos) in a 4-well multidish (Nunc, Roskilde, Denmark) containing 0.8-ml of mBECM. Embryos were dislodged from CGC at 36 to 48 h post-insemination.
In Example 9, IVF embryos were cultured in MBECM supplemented as follows: 1) no addition (control), 2) Hb (1 μg/ml), 3) Hb plus L-NAME (1 nM), and 4) Hb plus L-NAME (1000 nM). Embryonic development was evaluated up to 192 h post-insemination. A total of 384 oocytes were inseminated, and were randomly and equally allotted to 4 replicates.
Embryos developed to the 2-cell, 8-cell, 16-cell, morula, and blastocyst stages at the pertinent observation times were individually scored ‘1’ (developed). Embryos that had not developed to these stages at the same times were scored ‘0’ (non-developed). Sums of the scores at each stage of development were evaluated by analysis of variance using a general linear model (PROC-GLM) in the SAS statistical programming package (1991). In Example 8, the combined effects of Hb addition and month of oocyte collection were first examined in a 2×7 factorial arrangement. Overall differences in embryonic development in Hb-free and Hb-containing culture systems were further evaluated. […] Differences were regarded as statistically significant where P values were less than 0.05.

For hemoglobin [Hb], the “Number of embryos developed to 2-cell” value (96 embryos, 48 h) was 68, the “Number of embryos developed to 8-cell” value (96 embryos, 60 h) was 54 and the “Number of embryos developed to 16-cell” value (96 embryos, 120 h) was 47. For the same substance, the “Number of embryos developed to Morula” value (96 embryos, 144 h) was 35, the “Number of embryos developed to Blastocyst” value (96 embryos, 192 h) was 30 and the “Least square mean of embryos developed to 2-cell” value (48 h) was 0.708. For the same substance, the “Least square mean of embryos developed to 8-cell” value (60 h) was 0.563, the “Least square mean of embryos developed to 16-cell” value (120 h) was 0.489 and the “Least square mean of embryos developed to Morula” value (144 h) was 0.365. The “Least square mean of embryos developed to Blastocyst” value (192 h) was 0.312 and 0.313.
